Patent publication US20130203635A1, “NUCLEIC ACID LIGATION METHOD” (priority 2012, published 2013)

B1: Pyrococcus horikoshii 2',3'-cyclic phosphate RNA ligase (RtcB) (protein)
chain: MVVPLKRIDKIRWEIPKFDKRMRVPGRVYADEVLLEKMKNDRTLEQATNVAMLPGIYKYSIVMPDGHQGYGFPIGGVAAFDVKEGVISPGGIGYDINCGVRLIRTNLTEKEVRPRIKQLVDTLFKNVPSGVGSQGRIKLHWTQIDDVLVDGAKWAVDNGYGWERDLERLEEGGRMEGADPEAVSQRAKQRGAPQLGSLGSGNHFLEVQVVDKIFDPEVAKAYGLFEGQVVVMVHTGSRGLGHQVASDYLRIMERAIRKYRIPWPDRELVSVPFQSEEGQRYFSAMKAAANFAWANRQMITHWVRESFQEVFKQDPEGDLGMDIVYDVAHNIGKVEEHEVDGKRVKVIVHRKGATRAFPPGHEAVPRLYRDVGQPVLIPGSMGTASYILAGTEGAMKETFGSTCHGAGRVLSRKAATRQYRGDRIRQELLNRGIYVRAASMRVVAEEAPGAYKNVDNVVKVVSEAGIAKLVARMRPIGVAKG

Experiments:
P. horikoshii RtcB [1] = test: P. horikoshii RtcB RNA ligation assay; type: biochemical, Pyrococcus horikoshii; conditions: Archease 0.25 μM, NTP 100 μM, RtcB 5 μM (FIG. 10B, 11B)
Text: FIG. 2. P. horikoshii RtcB catalyzed ligation of 3′-P and 5′-OH RNA termini. P. horikoshii RtcB requires Mn^2+ and GTP for ligation. […] The lane labeled “2′-deoxy” is a ligation reaction using the tRNA mimic substrate but with a 3′-P/2′-H termini on its 5′ fragment. The lane labeled “C98A” is a ligation reaction with RtcB that has a C98A substitution within the predicted metal-binding site.
RtcB from the archaeal domain of life likewise catalyzes the GTP-dependent ligation of 3′-P and 5′-OH RNA termini. The crystal structure of RtcB from a hyperthermophilic archaeon, Pyrococcus horikoshii, was determined as part of a structural genomics project (21). […] The P. horikoshii homologue has 29% amino-acid sequence identity to E. coli RtcB, and 49% identity to the human ligase (HSPC117). To investigate if RtcB from archaea catalyzes the GTP-dependent ligation of 3′-P and 5′-OH RNA termini, we synthesized a P. horikoshii rtcB gene and produced soluble enzyme in E. coli. […] The P. horikoshii ligase also required a 2′-OH on the terminal nucleotide of the 5′ RNA fragment.
RNA Ligation Assay. Ligation assays with single-stranded RNA as the substrate used two 10-nt oligonucleotides that were synthesized by Integrated DNA Technologies (15). […] The 3′ RNA fragment had hydroxyl groups on each end. The sequence of the 5′ fragment was FAM-5′-AAAUAACAAA-3′-P (SEQ ID NO:6) and the sequence of the 3′ RNA fragment was 5′-AAAUAACAAA-3′ (SEQ ID NO:6). Ligation reactions were performed in 10-μL solutions consisting of 50 mM Bis-Tris buffer, pH 7.0, containing NaCl (300 mM), […] (0.25 mM), GTP (100 μM), each RNA fragment (1 μM), and RtcB (10 μM). Reaction mixtures were incubated at 70° C. for 1 h prior to the addition of water (40 μL) and RNA-loading buffer (50 μL). Reaction mixtures were subjected to electrophoresis and visualized as previously described in the previous examples.
The ability of Archease to activate P. horikoshii RtcB was tested in reactions using ssRNA substrates. Ligation reactions included a 10-nt 5′ RNA fragment and a 10-nt 3′ RNA fragment. […] The 3′ RNA fragment had hydroxyl groups on each end. The sequence of the 5′ fragment was FAM-5′-AAAUAACAAA-3′-P (SEQ ID NO:6) and the sequence of the 3′ RNA fragment was 5′-AAAUAACAAA-3′ (SEQ ID NO:6). Ligation reactions were performed in 50-μL solutions consisting of 50 mM Tris-HCl buffer, pH 7.4, containing NaCl (300 mM), MnCl2 (0.25 mM), GTP (100 μM), RNA fragments (100 pmol of each), and P. horikoshii RtcB (5 μM).
Ligation reaction mixtures were set up as described above, and each was divided into two tubes. No Archease was added to one set of reaction mixtures (FIG. 10A), and Archease was added to a concentration of 0.25 μM to the other set (FIG. 10B). […] Archease had no effect on ligation reactions that used 2′-F RNA.
We tested the ability of Archease to enable RtcB to use cofactors other than GTP or dGTP. Ligation reaction mixtures with RtcB were set up as described above, and each was divided into two tubes. No Archease was added to one set of reaction mixtures (FIG. 11A), and Archease was added to a concentration of 0.25 μM to the other set (FIG. 11B). The various NTPs were included at a concentration of 100 μM.

[2] = tested on: Escherichia coli RtcB ligase; test: E. coli RtcB RNA ligation assay (3′-P and 5′-OH termini, urea-polyacrylamide gel); type: biochemical
Text: FIG. 1. […] (A) RNA ligation substrate that mimics a broken tRNA anti-codon. FAM label allows visualization in a urea-polyacrylamide gel. […] (B) Cofactor- and metal-dependence of ligation. Reactions contain manganese, except in the “—Mn^2+” lane. The lane labeled “C78A” is a ligation reaction performed with RtcB that has a C78A substitution within the predicted metal binding site. (C) Ligation assays using GTP analogues as cofactors. […] (E) RNA termini specificity of RtcB. Modifications to the ligatable ends of the tRNA mimic substrate were made as indicated and tested in ligation reactions.
To assay for ligation, we initially used two single-stranded RNA (ssRNA) oligos that were each 10 nucleotides in length. The 5′ RNA fragment was labeled with 6-carboxyfluorescein (FAM) at its 5′ end and phosphorylated at its 3′ end. The 3′ RNA fragment had hydroxyl groups at each end. We intended to convert the 3′-P into a 2′,3′-cyclic phosphate by incubation with RtcA and ATP, so as to produce a suitable substrate for RtcB.
These reactions were performed with high concentrations of GTP analogues to ensure saturation of RtcB.
We investigated the RNA termini structure requirements for ligation by modifying the ends of our tRNA mimic substrate. First, all four combinations of either a phosphate or hydroxyl group at each termini were sampled while maintaining a 2′-OH on the 5′ side of the ligation junction. […] Next, the importance of the terminal ribose 2′-OH for ligation was probed by replacing this hydroxyl group with either hydrogen (2′-H) or fluorine (2′-F).

P. horikoshii RtcB [3] = test: 14C-labeled GTP binding assay; set-up: species or system Pyrococcus horikoshii
Description: Structure of the RtcB-Histidine-GMP Covalent Intermediate. To determine the optimal reaction conditions that enable formation of the RtcB-GMP covalent intermediate, ^14C-labeled GTP binding studies were performed (7). […] Under these conditions, the maximal GMP:RtcB molar ratio was determined to be (0.76±0.02):1. No binding of GTP to RtcB was detected in the absence of Mn(II). Using these reaction conditions, we formed the RtcB-GMP intermediate and removed unbound Mn(II), GTP, and PPi by gel-filtration chromatography. The protein was concentrated to 200 μM, and crystals of this complex diffracted to a resolution of 2.4 Å.
^14C-labeled GTP Binding Assays. […] Absorbance readings at A260 and A280 were obtained for each fraction. The protein fractions have high A280 readings, whereas the fractions with free GTP have higher A260 readings. In fractions containing protein, the RtcB concentrations were calculated from the A280 reading using an extinction coefficient of 62,340 M^−1 cm^−1 (ExPASy). The concentration of [8-^14C]GTP in the protein fractions was determined by liquid scintillation counting. Each 0.5-mL fraction was mixed with 3.5 mL of Ultima Gold MV liquid scintillation cocktail (Perkin Elmer) in a 4-mL vial, and counts were read on a MicroBeta TriLux liquid scintillation counter (Perkin Elmer). […] Under these conditions, the GTP:RtcB molar ratio was determined to be (0.76±0.02):1. […]

human RtcA = human RtcA (Homo sapiens, UniProt O00442); conditions: read-out: ATP KM; cited from earlier work
Sequence of human RtcA (O00442 whole entry): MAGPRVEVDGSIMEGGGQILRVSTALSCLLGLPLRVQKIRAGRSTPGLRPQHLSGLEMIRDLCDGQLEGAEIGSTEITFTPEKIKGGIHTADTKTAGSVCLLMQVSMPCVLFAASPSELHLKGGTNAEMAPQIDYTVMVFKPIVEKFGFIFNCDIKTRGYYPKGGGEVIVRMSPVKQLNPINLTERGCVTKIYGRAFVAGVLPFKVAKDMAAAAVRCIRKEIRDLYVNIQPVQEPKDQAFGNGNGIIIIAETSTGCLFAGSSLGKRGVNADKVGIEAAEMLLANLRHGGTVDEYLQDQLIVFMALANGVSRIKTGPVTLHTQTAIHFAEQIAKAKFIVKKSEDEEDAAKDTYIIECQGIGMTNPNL

E. coli RtcA = E. coli RtcA (Escherichia coli, UniProt P46849); conditions: read-out: ATP KM; cited from earlier work
Sequence of E. coli RtcA (P46849 whole entry): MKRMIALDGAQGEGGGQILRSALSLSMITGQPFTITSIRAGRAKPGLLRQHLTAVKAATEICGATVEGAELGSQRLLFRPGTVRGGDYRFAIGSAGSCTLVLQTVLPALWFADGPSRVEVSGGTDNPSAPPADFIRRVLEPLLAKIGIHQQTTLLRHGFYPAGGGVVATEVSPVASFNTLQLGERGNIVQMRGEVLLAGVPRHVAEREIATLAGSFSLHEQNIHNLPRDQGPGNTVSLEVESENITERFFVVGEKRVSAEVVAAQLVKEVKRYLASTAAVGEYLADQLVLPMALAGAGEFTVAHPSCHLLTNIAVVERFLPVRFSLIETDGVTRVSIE

[4] = target: T1, Pyrococcus horikoshii Archease
T1 chain: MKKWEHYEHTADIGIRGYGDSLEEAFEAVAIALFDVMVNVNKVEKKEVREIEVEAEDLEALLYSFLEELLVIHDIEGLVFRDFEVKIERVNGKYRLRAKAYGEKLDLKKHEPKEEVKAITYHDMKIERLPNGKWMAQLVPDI

Row | Molecule | use as cofactor in RNA ligation with Archease (P. horikoshii RtcB [1]) | Km ([2]; titration with GTP, tRNA mimic substrate (FIG. 1D)) | maximal GMP:RtcB (GTP:RtcB) molar ratio (P. horikoshii RtcB [3]; RtcB 100 μM, GTP 1 mM, MnCl2 2 mM, 70° C. for 45 min) | binding of GTP to RtcB (P. horikoshii RtcB [3]; in the absence of Mn(II)) | use as cofactor in ligation of 3′-P and 5′-OH RNA termini ([2]; in place of GTP, tRNA anticodon stem-loop mimic substrate, with Mn2+ (FIG. 1B, 1C)) | Km (human RtcA) | Km (E. coli RtcA) | RNA ligation (urea-polyacrylamide gel of FAM-labeled ssRNA substrate and product) [4]
1 | Nc1nc2c(ncn2[C@@H]2O[C@H](COP(=O)(O)OP(=O)(O)OP(=O)(O)O)[C@@H](O)[C@H]2O)c(=O)[nH]1 [GTP, guanosine-5′-triphosphate] | selectively activated | < 16 µM | 0.76±0.02 | No binding |  |  |  | 
2 | Nc1ncnc2c1ncn2[C@@H]1O[C@H](COP(=O)(O)OP(=O)(O)OP(=O)(O)O)[C@@H](O)[C@H]1O [ATP, adenosine-5′-triphosphate] | enables RtcB to use ATP |  |  |  | unable to substitute for GTP | 6 µM | 20 µM | 
3 | B1 |  |  |  |  |  |  |  | the addition of Archease at concentrations that are lower than that of RtcB or RNA enhanced catalysis of RNA ligation
